Results published in patent publication US9115101B2 (Genentech, Inc., priority 2012, dated 2015).
pIC50: −log10 of the molar value.

Molecular target: T1, RORc ligand binding domain (Homo sapiens, UniProt P51449)
T1 construct: host or cells: E. coli
T1 sequence (P51449 269-508 limits assumed): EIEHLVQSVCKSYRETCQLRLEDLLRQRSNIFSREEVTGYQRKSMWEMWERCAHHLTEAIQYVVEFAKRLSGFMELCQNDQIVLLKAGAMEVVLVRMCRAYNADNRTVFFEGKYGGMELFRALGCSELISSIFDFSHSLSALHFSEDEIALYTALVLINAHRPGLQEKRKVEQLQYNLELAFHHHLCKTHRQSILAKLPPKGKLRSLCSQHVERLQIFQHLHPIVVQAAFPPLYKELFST
Test: In Vitro RORc Ligand Binding Assay (25-[3H]hydroxycholesterol radioligand filtration)
Conditions: In Vitro RORc Ligand Binding Assay; Table 4; read-out: RORc IC50

pIC50	Structure (SMILES)
7.66	C[C@H]1CCC(c2ccccc2)S(=O)(=O)N1Cc1ccc(OC2CCN(S(C)(=O)=O)CC2)cc1 (single isomer, unassigned) [Example 45]
6.52	CC(=O)N1CCN(c2ccc(CN3[C@H](C)CCC(c4ccccc4)S3(=O)=O)cc2)CC1 (single isomer, unassigned) [Example 47]
5.82	CC(=O)N1CCN(c2ccc(CN3[C@H](C)CCC(c4ccccc4)S3(=O)=O)cn2)CC1 (single isomer, unassigned) [Example 48]
5.26	CC(=O)N1CCN(c2ccc(CN3[C@H](C)CCC(c4ccccc4)S3(=O)=O)cn2)CC1 (single isomer, unassigned) [Example 49]
6.77	C[C@@H]1CCC(c2ccccc2)S(=O)(=O)N1Cc1ccc(OC2CCN(S(C)(=O)=O)CC2)nc1 (single isomer, unassigned) [Example 50]
5.85	C[C@@H]1CCC(c2ccccc2)S(=O)(=O)N1Cc1ccc(OC2CCN(S(C)(=O)=O)CC2)nc1 (single isomer, unassigned) [Example 51]
7.43	CS(=O)(=O)N1CCC(Oc2ccc(CN3CCCC(c4ccccc4)S3(=O)=O)c(F)c2)CC1 (single isomer, unassigned) [Example 54, 2-(2-fluoro-4-((1-(methylsulfonyl)piperidin-4-yl)oxy)benzyl)-6-phenyl-1,2-thiazinane 1,1-dioxide]
7.07	CS(=O)(=O)N1CCC(Oc2ccc(CN3CCCC(c4ccccc4)S3(=O)=O)c(F)c2)CC1 (single isomer, unassigned) [Example 55, 2-(2-fluoro-4-((1-(methylsulfonyl)piperidin-4-yl)oxy)benzyl)-6-phenyl-1,2-thiazinane 1,1-dioxide]
7.03	CS(=O)(=O)N1CCC(Oc2ccc(CN3CCOCC(c4ccccc4)S3(=O)=O)c(F)c2)CC1 (single isomer, unassigned) [Example 56, 5-(2-fluoro-4-((1-(methylsulfonyl)piperidin-4-yl)oxy)benzyl)-3-phenyl-1,4,5-oxathiazepane 4,4-dioxide]
7.85	CS(=O)(=O)N1CCC(Oc2ccc(CN3CCOCC(c4ccccc4)S3(=O)=O)c(F)c2)CC1 (single isomer, unassigned) [Example 57, 5-(2-fluoro-4-((1-(methylsulfonyl)piperidin-4-yl)oxy)benzyl)-3-phenyl-1,4,5-oxathiazepane 4,4-dioxide]
7.85	C[C@H]1CCC(c2ccccc2)S(=O)(=O)N1Cc1ccc(N2CCN(C(=O)C3CC3)CC2)cc1F (single isomer, unassigned) [Example 58]
7.82	C[C@H]1CCC(c2ccccc2)S(=O)(=O)N1Cc1ccc(N2CCN(C(=O)C3CC3)CC2)cc1F (single isomer, unassigned) [Example 59]
7.82	C[C@H]1CCC(c2ccccc2)S(=O)(=O)N1Cc1ccc(N2CCN(C(=O)C3CC3)CC2)cc1 (single isomer, unassigned) [Example 60]
7.21	C[C@H]1CCC(c2ccccc2)S(=O)(=O)N1Cc1ccc(N2CCN(C(=O)C3CC3)CC2)cc1 (single isomer, unassigned) [Example 61]
6.24	CC(=O)N1CCN(c2ccc(CN3[C@@H](C)CC(c4ccccc4)S3(=O)=O)c(F)c2)CC1 (single isomer, unassigned) [Example 63]
6.15	CC(=O)N1CCN(c2ccc(CN3[C@@H](C)CC(c4ccccc4)S3(=O)=O)c(F)c2)CC1 (single isomer, unassigned) [Example 64]
5.64	CC(=O)N1CCN(c2ccc(CN3[C@H](C)CC(c4ccccc4)S3(=O)=O)c(F)c2)CC1 (single isomer, unassigned) [Example 65]
6.51	CC(=O)N1CCN(c2ccc(CN3[C@H](C)CC(c4ccccc4)S3(=O)=O)c(F)c2)CC1 (single isomer, unassigned) [Example 66]
6.39	CC(=O)N1CCN(c2ccc(CN3CC(C)CC(c4ccccc4)S3(=O)=O)c(F)c2)CC1 (single isomer, unassigned) [Example 68, 1-{4-[3-Fluoro-4-(4-methyl-1,1-dioxo-6-phenyl-[1,2]thiazinan-2-ylmethyl)-phenyl]-piperazin-1-yl}-ethanone]
6.99	C[C@H]1CCC(c2ccccc2)S(=O)(=O)N1Cc1ccc(N2CCN(C(=O)CC#N)CC2)cc1F (single isomer, unassigned) [Example 69]
7.39	C[C@H]1CCC(c2ccccc2)S(=O)(=O)N1Cc1ccc(N2CCN(C(=O)CC#N)CC2)cc1F (single isomer, unassigned) [Example 71]
7.19	C[C@H]1CCC(c2ccccc2)S(=O)(=O)N1Cc1ccc(N2CCN(C(=O)CCC#N)CC2)cc1F (single isomer, unassigned) [Example 72]
6.33	C[C@H]1CCC(c2ccccc2)S(=O)(=O)N1Cc1ccc(N2CCN(C(=O)CCC#N)CC2)cc1F (single isomer, unassigned) [Example 73]
7.54	COCC(=O)N1CCN(c2ccc(CN3[C@@H](C)CCC(c4ccccc4)S3(=O)=O)c(F)c2)CC1 (single isomer, unassigned) [Example 74]
6.78	COCC(=O)N1CCN(c2ccc(CN3[C@@H](C)CCC(c4ccccc4)S3(=O)=O)c(F)c2)CC1 (single isomer, unassigned) [Example 75]

pIC50	Structure (SMILES)
7.51	CO[C@@H](C)C(=O)N1CCN(c2ccc(CN3[C@@H](C)CCC(c4ccccc4)S3(=O)=O)c(F)c2)CC1 (single isomer, unassigned) [Example 76]
6.86	CO[C@@H](C)C(=O)N1CCN(c2ccc(CN3[C@@H](C)CCC(c4ccccc4)S3(=O)=O)c(F)c2)CC1 (single isomer, unassigned) [Example 77]
7.54	C[C@H](O)C(=O)N1CCN(c2ccc(CN3[C@@H](C)CCC(c4ccccc4)S3(=O)=O)c(F)c2)CC1 (single isomer, unassigned) [Example 78]
7.09	C[C@H](O)C(=O)N1CCN(c2ccc(CN3[C@@H](C)CCC(c4ccccc4)S3(=O)=O)c(F)c2)CC1 (single isomer, unassigned) [Example 79]
7.85	CC(=O)N1CCCN(c2ccc(CN3[C@@H](C)CCC(c4ccccc4)S3(=O)=O)c(F)c2)CC1 (single isomer, unassigned) [Example 80]
6.93	CC(=O)N1CCCN(c2ccc(CN3[C@@H](C)CCC(c4ccccc4)S3(=O)=O)c(F)c2)CC1 (single isomer, unassigned) [Example 81]
7.66	C[C@H]1CCC(c2ccccc2)S(=O)(=O)N1Cc1ccc(N2CCCN(C(=O)CC#N)CC2)cc1F (single isomer, unassigned) [Example 82]
6.67	C[C@H]1CCC(c2ccccc2)S(=O)(=O)N1Cc1ccc(N2CCCN(C(=O)CC#N)CC2)cc1F (single isomer, unassigned) [Example 83]
7.64	C[C@H]1CCC(c2ccccc2)S(=O)(=O)N1Cc1ccc(N2CC3(CCOCC3)C2)cc1F (single isomer, unassigned) [Example 84]
7.05	C[C@H]1CCC(c2ccccc2)S(=O)(=O)N1Cc1ccc(N2CC3(CCOCC3)C2)cc1F (single isomer, unassigned) [Example 85]
7.82	C[C@H]1CCC(c2ccccc2)S(=O)(=O)N1Cc1ccc(N2CCC(C#N)CC2)cc1F (single isomer, unassigned) [Example 86]
6.70	C[C@H]1CCC(c2ccccc2)S(=O)(=O)N1Cc1ccc(N2CCC(C#N)CC2)cc1F (single isomer, unassigned) [Example 87]
6.09	C[C@H]1CCC(c2ccccc2)S(=O)(=O)N1Cc1ccc(N2CCCNCC2)cc1F (single isomer, unassigned) [Example 88]
5.90	C[C@H]1CCC(c2ccccc2)S(=O)(=O)N1Cc1ccc(N2CCCNCC2)cc1F (single isomer, unassigned) [Example 89]
7.12	CO[C@@H](C)C(=O)N1CCCN(c2ccc(CN3[C@@H](C)CCC(c4ccccc4)S3(=O)=O)c(F)c2)CC1 (single isomer, unassigned) [Example 90]
6.60	C[C@H](O)C(=O)N1CCCN(c2ccc(CN3[C@@H](C)CCC(c4ccccc4)S3(=O)=O)c(F)c2)CC1 (single isomer, unassigned) [Example 91]
6.81	CO[C@@H](C)C(=O)N1CCCN(c2ccc(CN3[C@@H](C)CCC(c4ccccc4)S3(=O)=O)c(F)c2)CC1 (single isomer, unassigned) [Example 92]
7.31	C[C@H](O)C(=O)N1CCCN(c2ccc(CN3[C@@H](C)CCC(c4ccccc4)S3(=O)=O)c(F)c2)CC1 (single isomer, unassigned) [Example 93]
7.27	C[C@H]1CCC(c2ccccc2)S(=O)(=O)N1Cc1ccc(N2CC3(CCOC3)C2)cc1F (single isomer, unassigned) [Example 94]
7.03	C[C@H]1CCC(c2ccccc2)S(=O)(=O)N1Cc1ccc(N2CC3(CCOC3)C2)cc1F (single isomer, unassigned) [Example 95]
5.35	C[C@H]1CCC(c2ccccc2)S(=O)(=O)N1Cc1ccc(N2CCNCC2)cc1F (single isomer, unassigned) [Example 96]
7.40	C[C@H]1CCC(c2ccccc2)S(=O)(=O)N1Cc1ccc(N[C@H]2CC[C@@H](C#N)CC2)cc1F (single isomer, unassigned) [Example 97]
7.36	C[C@H]1CCC(c2ccccc2)S(=O)(=O)N1Cc1ccc(N2CCC3(CC2)COC3)cc1F (single isomer, unassigned) [Example 99]
7.92	C[C@H]1CCC(c2ccccc2)S(=O)(=O)N1Cc1ccc(N2CCC3(CC2)COC3)cc1F (single isomer, unassigned) [Example 100]
7.60	C[C@H]1CCC(c2ccccc2)S(=O)(=O)N1Cc1ccc(N2CCC3(COC3)C2)cc1F (single isomer, unassigned) [Example 102]
